ChEMBL document CHEMBL3301361, “Experimental in vitro DMPK and physicochemical data on a set of publicly disclosed compounds”
Converted amounts (≈) assume the structure as drawn.

assay: physchem; conditions: pH 7.4 buffer

Row | Structure (SMILES) | solubility thermodynamic [µM]
1 | N=C(N)c1ccc2cc(C(=O)Nc3ccc(CN)cc3)cc(Nc3ncccn3)c2c1 | 151 (≈ 62.3 µg/mL)
2 | CCn1cnc(-c2ccccc2)c1-c1nc2c(N)ncnc2s1 | 170 (≈ 54.7 µg/mL)
3 | CSc1nc(N)n2nc(-c3ccco3)nc2n1 | 151 (≈ 37.6 µg/mL)
4 | O=C(NNC(=O)c1ccccc1)c1ccccc1 | 182 (≈ 43.7 µg/mL)
5 | O=C(c1ccc(F)cc1)C1CCN(C(=O)c2ccccc2)CC1 | 200 (≈ 62.1 µg/mL)
6 | N#Cc1ccccc1C(=O)N1CCC(C(=O)c2ccc(F)cc2)CC1 | 135 (≈ 45.4 µg/mL)
7 | Nc1nccc(/C=C/c2ccccc2)n1 | 190 (≈ 37.6 µg/mL)
8 | Nc1ccc2c(c1)cc(C(=O)O)n2Cc1ccc(Cl)c(Cl)c1 | 347 (≈ 116 µg/mL)
9 | Nc1nnc(-c2ccccc2F)s1 | 316 (≈ 61.7 µg/mL)
10 | COc1ccc(NC(=O)c2cc(C)no2)cc1 | 158 (≈ 36.8 µg/mL)
11 | Cc1ccccc1C(=O)Nc1ccccc1 | 186 (≈ 39.3 µg/mL)
12 | O=C(O)c1cc2ccc(F)cc2n1Cc1ccc(Cl)c(Cl)c1 | 182 (≈ 61.5 µg/mL)
13 | O=C(NNc1nc2ccccc2o1)c1ccccc1 | 129 (≈ 32.6 µg/mL)
14 | O=C(Nc1ccccc1)c1cc(-n2cnnc2)ccc1Cl | 407 (≈ 122 µg/mL)
15 | COc1ccc(Cc2nnc(N)s2)cc1 | 363 (≈ 80.3 µg/mL)
16 | CNC(=O)[C@@H](NC(=O)[C@H](CC(C)C)[C@H](OCc1cc2ccccc2n(C)c1=O)C(=O)NO)C(C)(C)C | 269 (≈ 135 µg/mL)
17 | Cc1cnc(NC(=O)c2ccccn2)s1 | 200 (≈ 43.7 µg/mL)
18 | O=C(NC1CCN(C(=O)c2cccs2)CC1)c1ccccc1 | 166 (≈ 52.2 µg/mL)
19 | Cc1ccccc1C(=O)NC1CCN(Cc2ccccc2)CC1 | 246 (≈ 75.7 µg/mL)
20 | CC(C)Cn1c2ccccc2c2cc(C(=O)O)ccc21 | 219 (≈ 58.5 µg/mL)
21 | Cc1ccc(-c2cn3cccnc3n2)cc1 | 251 (≈ 52.6 µg/mL)
22 | O=C(Nc1ccccc1)N1CCN(c2ccccn2)CC1 | 170 (≈ 47.9 µg/mL)
23 | O=C(Nc1ccccc1C(F)(F)F)N1CCN(c2ccccn2)CC1 | 190 (≈ 66.7 µg/mL)
24 | CCC(C)(C)NC(=O)Cc1ccc(C)cc1 | 240 (≈ 52.6 µg/mL)
25 | CC(C)(C)C(O)C(Cc1ccccc1Cl)n1cncn1 (stereo not drawn) | 398 (≈ 117 µg/mL)

Row | Structure (SMILES) | solubility thermodynamic [µM]
26 | COc1ccc(C(=O)Nc2nccs2)cc1OC | 132 (≈ 34.8 µg/mL)
27 | Oc1ncnc2c1cnn2Cc1ccccc1 | 158 (≈ 35.9 µg/mL)
28 | O=S(=O)(NCc1ccccc1)c1cccc2nonc12 | 141 (≈ 40.9 µg/mL)
29 | CNC(=O)N1c2ccccc2C=Cc2ccccc21 | 380 (≈ 95.2 µg/mL)
30 | O=C(c1ccccc1)C1CCN(C(=O)c2ccco2)CC1 | 427 (≈ 121 µg/mL)
31 | O=C(NCc1ccccc1)c1ccc(=O)oc1 | 135 (≈ 30.9 µg/mL)
32 | Cc1ccnc(NC(=O)CSc2ccccn2)c1 | 436 (≈ 113 µg/mL)
33 | COCC(C)(C)Oc1cc(O[C@@H](C)Cc2ccccc2)cc(C(=O)Nc2ccc(C(=O)O)cn2)c1 | 190 (≈ 91.2 µg/mL)
34 | N#Cc1ccccc1COc1cc(OCCCN2CCCC2)ccc1C(=O)Nc1cccc(O)c1 | 363 (≈ 171 µg/mL)
35 | O=C(Nc1cccnc1)c1ccc(OCCCN2CCCC2)cc1OCc1ccccc1 | 209 (≈ 90.1 µg/mL)
36 | O=C(Nc1ccccc1)c1ccc(OCCCN2CCCC2)cc1OCc1cccnc1 | 398 (≈ 172 µg/mL)
37 | Nc1c2c(O)nc(O)cc2nn1-c1ccccc1 | 178 (≈ 43.1 µg/mL)
38 | Oc1ncnc2c1nnn2Cc1ccccc1 | 209 (≈ 47.5 µg/mL)
39 | COc1cccc(NC(=O)Cn2cc(Oc3ncnc4cc(OC)c(OCCN5CCCCC5)cc34)cn2)c1 | 141 (≈ 75.3 µg/mL)
40 | COc1ccc(CNC(=O)c2ccc(Oc3ccc(C#C[C@]4(O)CN5CCC4CC5)cc3)cc2)nc1 | 347 (≈ 168 µg/mL)
41 | CC[C@@H](C)NC(=O)c1ccc(Oc2ccc(C#C[C@]3(O)CN4CCC3CC4)cc2)cc1 | 112 (≈ 47 µg/mL)
42 | CCN(C(=O)Cc1ccc(S(C)(=O)=O)cc1)C1CCN(CCC(c2ccccc2)N2CCN(c3cccc(F)c3)CC2)CC1 (stereo not drawn) | 144 (≈ 89.7 µg/mL)
43 | COc1ccc(Cl)c(Nc2ncnc3cc(OCCCN4CCN(C)CC4)cc(OC(C)C)c23)n1 | 347 (≈ 174 µg/mL)
44 | CN(C(=O)Cc1ccc(-n2cnnn2)cc1)C1CCN(Cc2ccc(C(F)(F)F)nc2)CC1 | 182 (≈ 83.6 µg/mL)
45 | CO[C@H]1CN(Cc2ccc(C(F)(F)F)cc2)CC[C@H]1N(C)C(=O)Cc1ccc(-n2cnnn2)cc1 | 263 (≈ 128 µg/mL)
46 | C[C@H]1COCCN1c1cc(CS(C)(=O)=O)nc(-c2ccc3[nH]ccc3c2)n1 | 190 (≈ 73.6 µg/mL)
47 | O=C(N[C@@H](Cc1ccc(OCCc2cccc(NC3CCCC3)n2)cc1)C(=O)O)c1c(Cl)cccc1Cl | 295 (≈ 160 µg/mL)
48 | O=C(O)Cc1cccc(-c2ccc(NC(=O)c3nnc(Nc4ccccc4F)o3)cc2)c1 | 257 (≈ 111 µg/mL)
49 | O=C(Nc1ccc(Cl)c(Cl)c1)N1CCN(C[C@@H]2CCCN(CCCc3ccccc3)C2)CC1 | 144 (≈ 70.7 µg/mL)
50 | CNc1nc2ccc(NC(C)=O)cc2s1 | 347 (≈ 76.7 µg/mL)

Row | Structure (SMILES) | solubility thermodynamic [µM]
51 | CC(C)(C)c1csc(N2CCN(C(=O)[C@@H]3CCCC[C@H]3C(=O)NC3(C#N)CC3)CC2)n1 | 282 (≈ 125 µg/mL)
52 | CC(C)Oc1cc(O[C@H](C)c2ccccc2)cc(C(=O)Nc2ccc(C(=O)O)cn2)c1 | 112 (≈ 47.2 µg/mL)
53 | Cc1csc(NC(=O)c2ccccc2)n1 | 331 (≈ 72.3 µg/mL)
54 | CCCN(CCO)CCCOc1ccc2c(Nc3cc(CC(=O)Nc4cccc(F)c4)[nH]n3)ncnc2c1 | 112 (≈ 58.5 µg/mL)
55 | O=C(Cc1ccccc1)Nc1ccccc1O | 246 (≈ 55.8 µg/mL)
56 | COc1ccccc1C[C@@H](C(=O)O)N1CCC(CN2CCC(Oc3ccc(Cl)c(Cl)c3)CC2)CC1 | 263 (≈ 137 µg/mL)
57 | Cc1cc(OC2CCN(CC3CCN([C@@](C)(Cc4ccc(F)cc4)C(=O)O)CC3)CC2)ccc1Cl | 204 (≈ 103 µg/mL)
58 | O=C(O)[C@H](Cc1cccc(F)c1)N1CCC(CN2CCC(Oc3ccc(Cl)c(Cl)c3)CC2)CC1 | 417 (≈ 212 µg/mL)
59 | N#CC1(NC(=O)[C@@H]2CCCC[C@H]2C(=O)N2CCc3[nH]c4c(C(F)(F)F)cccc4c3C2)CC1 | 144 (≈ 66.3 µg/mL)
60 | N#CC1(NC(=O)[C@@H]2CCCC[C@H]2C(=O)N2CCc3[nH]c4c(OC(F)(F)F)cccc4c3C2)CC1 | 123 (≈ 58.4 µg/mL)
61 | CCOc1cccc2c3c([nH]c12)CCN(C(=O)[C@@H]1CCCC[C@H]1C(=O)NC1(C#N)CC1)C3 | 302 (≈ 131 µg/mL)
62 | N#CC1(NC(=O)[C@@H]2CCCC[C@H]2C(=O)N2CCc3[nH]c4ccc(Cl)cc4c3C2)CC1 | 129 (≈ 54.7 µg/mL)
63 | COc1ccc(N2CCN(C(=O)[C@@H]3CCCC[C@H]3C(=O)NCC#N)CC2)cc1 | 389 (≈ 150 µg/mL)
64 | CS(=O)(=O)c1ccc(N2CCN(C(=O)[C@@H]3CCCC[C@H]3C(=O)NCC#N)CC2)cc1 | 275 (≈ 119 µg/mL)
65 | COc1cc(N2CCN(C(=O)[C@@H]3CCCC[C@H]3C(=O)NC3(C#N)CC3)[C@H](C)C2)ccc1C1CC1 | 204 (≈ 94.9 µg/mL)
66 | CC(C)c1c(C(=O)NC2C3CC4CC(C3)CC2C4)cnn1-c1ccc(C(=O)O)cc1 (stereo not drawn) | 224 (≈ 91.2 µg/mL)
67 | CC(=O)N1CCN(CCOc2ccc(C3(O)CCN(c4ccc5nnc(C(F)(F)F)n5n4)CC3)cc2)CC1 | 170 (≈ 90.6 µg/mL)
68 | Cc1cc(C)cc(-c2[nH]c3sc(C(C)(C)C(=O)N4C5CCC4CC5)cc3c2CCN2CCC(CNC(=O)N3CCOCC3)CC2)c1 | 112 (≈ 72.5 µg/mL)
69 | Nc1ccccc1NC(=O)c1ccc(N2CCOCC2)cc1 | 182 (≈ 54.1 µg/mL)
70 | COc1cc2c(Nc3ccc(Br)cc3F)ncnc2cc1OC/C=C/CN1CCCC1 | 240 (≈ 117 µg/mL)
71 | COc1cc2c(Nc3cc(CC(=O)Nc4cc(F)cc(F)c4)[nH]n3)ncnc2cc1OCCCN1CCC(CO)CC1 | 214 (≈ 124 µg/mL)
72 | c1ccc(Nc2ncnc3ccccc23)cc1 | 132 (≈ 29.2 µg/mL)
73 | COc1cc2cc(O)nc(C)c2cc1OC | 209 (≈ 45.8 µg/mL)
74 | COc1cc2ncnc(Nc3cc(NC(=O)c4ccnc(N5CCOCC5)c4)ccc3C)c2cc1OCCN(C(C)C)C(C)C | 240 (≈ 147 µg/mL)
75 | COc1ccc(Cn2c(CCc3c[nH]c4ccccc34)nnc2[C@@H](Cc2c[nH]c3ccccc23)NC(=O)C(C)(C)N)cc1 | 182 (≈ 105 µg/mL)

Row | Structure (SMILES) | solubility thermodynamic [µM]
76 | COc1cc2c(Nc3ncc(CNS(=O)(=O)c4cccc(F)c4)s3)ncnc2cc1OCCCN1CCC(CO)CC1 | 302 (≈ 186 µg/mL)
77 | COCCN(Cc1cc2c(Nc3cccc(Cl)c3F)ncnc2cc1OC)[C@@H](C)C(N)=O | 166 (≈ 76.7 µg/mL)
78 | CNC(=O)[C@H]1CCCN1Cc1cc2c(Nc3cccc(Cl)c3F)ncnc2cc1OC | 282 (≈ 125 µg/mL)
79 | COc1cc2c(Nc3cc(CC(=O)Nc4cccc(F)c4)[nH]n3)ncnc2cc1OCCCNCCO | 219 (≈ 111 µg/mL)
80 | Cc1cc(C)c(C(=O)N[C@@H](CNC(=O)CO[C@@H]2C[C@@H](CNc3ccccn3)N(C(=O)OCc3ccccc3)C2)C(=O)O)c(C)c1 | 389 (≈ 240 µg/mL)
81 | CC(=O)N1CCN(CC(O)CN2CCN(CCc3c(-c4cc(C)cc(C)c4)[nH]c4sc(C(C)(C)C(=O)N5C6CCC5CC6)cc34)CC2)CC1 (stereo not drawn) | 214 (≈ 147 µg/mL)
82 | Cc1cc(C)cc(-c2[nH]c3sc(C(C)(C)C(=O)N4C5CCC4CC5)cc3c2CCN2CCN(CC(O)CN3CCNCC3)CC2)c1 (stereo not drawn) | 427 (≈ 276 µg/mL)
83 | Nc1ccccc1NC(=O)c1ccc(C2CCN(CCC(=O)Nc3ccccc3F)CC2)cc1 | 112 (≈ 51.7 µg/mL)
84 | C[C@H](Oc1cccc2ncnc(Nc3ccc4c(cnn4Cc4ccccn4)c3)c12)C(=O)N1CCOCC1 | 166 (≈ 84.6 µg/mL)
85 | O=C(O)c1cc2cc(F)ccc2n1Cc1ccc(Cl)c(Cl)c1 | 209 (≈ 70.6 µg/mL)
86 | COc1cc2c(Nc3cc(CC(=O)Nc4cccc(F)c4)[nH]n3)ncnc2cc1OCCCN1CCC[C@@H]1CO | 162 (≈ 89.1 µg/mL)
87 | COCCNS(=O)(=O)c1ccc(Nc2nccc(-c3c(C)nc(C)n3C)n2)cc1 | 219 (≈ 91.1 µg/mL)
88 | CC(=O)NC1CN(c2ccc(Nc3ncc(F)c(-c4cnc(C)n4C(C)C)n3)cc2)C1 | 120 (≈ 50.9 µg/mL)
89 | Cc1ncc(-c2nc(Nc3ccc(N4CCN(C(=O)CO)CC4)cc3)ncc2F)n1C(C)C | 158 (≈ 71.9 µg/mL)
90 | COCCNS(=O)(=O)c1ccc(Nc2nccc(-c3cnc(C)n3C(C)C)n2)cc1 | 363 (≈ 156 µg/mL)
91 | CCN(CC)C(=O)C(C)(C)c1ccc2[nH]c(-c3cc(C)cc(C)c3)c(CCNCCCCc3ccncc3)c2c1 | 141 (≈ 76.1 µg/mL)
92 | N=C1S/C(=C/c2ccco2)C(=O)N1c1nccs1 | 182 (≈ 50.5 µg/mL)
93 | Nc1nccc(/C=C/c2c(Cl)nc3sccn23)n1 | 324 (≈ 89.9 µg/mL)
94 | Cc1ncc(-c2nc(Nc3ccc(N4CCOCC4)cc3)ncc2F)n1C(C)C | 118 (≈ 46.6 µg/mL)
95 | CN(C)CCCNS(=O)(=O)c1ccc(Nc2nccc(-c3cnc4cccnn34)n2)cc1 | 158 (≈ 71.7 µg/mL)
96 | O=C(Nc1nccs1)[C@H](CC1CCOCC1)c1ccc(S(=O)(=O)C2CC2)cc1 | 295 (≈ 124 µg/mL)
97 | CCSc1nc2c(N)ncnc2[nH]1 | 436 (≈ 85.2 µg/mL)
98 | CN(C)CCCN(C)S(=O)(=O)c1ccc(Nc2nccc(-c3cnc4ccccn34)n2)cc1 | 309 (≈ 144 µg/mL)
